In patent publication US9328138B2 (priority 2011, dated 2016):

Legend:
[1] = biological target: T1, HCV genotype 1b (BK) NS3 modified enzyme with a R155K mutation (Hepatitis C virus genotype 1b, UniProt P26663, R1181K); experiment: HCV NS3 protease time-resolved fluorescence (TRF) assay, genotype 1b R155K; format: biochemical; conditions: Ki 1b R155K
T1 construct: HCV genotype 1b (BK) NS3 modified enzyme
In short: (§1)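 Steps: compound plus NS3/NS4A enzyme for 10 minutes; add peptide substrate to 25 nM; let cleavage proceed 6 hours at room temperature; read product fluorescence (340 nm excitation, 615 nm emission, delayed 400 μs). Enzyme levels gave signal/background 5-20.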

[2] = biological target: HCV NS3 protease genotype 3a (3A-1) (Hepatitis C virus genotype 3a, UniProt Q81258); experiment: HCV NS3 protease time-resolved fluorescence (TRF) assay, genotype 3a; format: biochemical; conditions: Ki 3a
In short: as §1

[3] = genotype 1b (BK) NS3 R155K, single value

| SMILES | Ki [1, 3] | Ki [2] | Ki ([1]; first of two values printed in the cell (not explained)) | Ki ([1]; second of two values printed in the cell (not explained)) |
| --- | --- | --- | --- | --- |
| C=C[C@@H]1C[C@]1(NC(=O)[C@@H]1C[C@@H]2CN1C(=O)[C@H](C(C)(C)C)NC(=O)O[C@@H]1C[C@H]1CCCCCc1c(nc3ccccc3c1OCC1CN(C)C1)O2)C(=O)NS(=O)(=O)C1(C)CC1 [Example 224, (1aR,5S,8S,10R,22aR)-5-tert-butyl-N-[(1R,2S)-2-ethenyl-1-{[(1-methylcyclopropyl)sulfonyl]carbamoyl}cyclopropyl]-17-[(1-methylazetidin-3-yl)methoxy]-3,6-dioxo-1,1a,3,4,5,6,9,10,18,19,20,21,22,22a-tetradecahydro-8H-7,10-methanocyclopropa[18,19][1,10,3,6]dioxadiazacyclononadecino[11,12-b]quinoline-8-carboxamide] | 0.061 nM | 0.67 nM | – | – |
| C=C[C@@H]1C[C@]1(NC(=O)[C@@H]1C[C@@H]2CN1C(=O)[C@H](C(C)(C)C)NC(=O)O[C@@H]1C[C@H]1CCCCCc1c(nc3ccccc3c1OC1CCN(CCOC)CC1)O2)C(=O)NS(=O)(=O)C1(C)CC1 [Example 225, (1aR,5S,8S,10R,22aR)-5-tert-butyl-N-[(1R,2S)-2-ethenyl-1-{[(1-methylcyclopropyl)sulfonyl]carbamoyl}cyclopropyl]-17-{[1-(2-methoxyethyl)piperidin-4-yl]oxy}-3,6-dioxo-1,1a,3,4,5,6,9,10,18,19,20,21,22,22a-tetradecahydro-8H-7,10-methanocyclopropa[18,19][1,10,3,6]dioxadiazacyclononadecino[11,12-b]quinoline-8-carboxamide] | 0.079 nM | 0.6 nM | – | – |
| C=C[C@@H]1C[C@]1(NC(=O)[C@@H]1C[C@@H]2CN1C(=O)[C@H](C(C)(C)C)NC(=O)O[C@@H]1C[C@H]1CCCCCc1c(nc3ccccc3c1OCC1CN(CC)CCO1)O2)C(=O)NS(=O)(=O)C1(C)CC1 (stereo partly drawn) [Example 226, (1aR,5S,8S,10R,22aR)-5-tert-butyl-N-[(1R,2S)-2-ethenyl-1-{[(1-methylcyclopropyl)sulfonyl]carbamoyl}cyclopropyl]-17-[(4-ethylmorpholin-2-yl)methoxy]-3,6-dioxo-1,1a,3,4,5,6,9,10,18,19,20,21,22,22a-tetradecahydro-8H-7,10-methanocyclopropa[18,19][1,10,3,6] dioxadiazacyclononadecino[11,12-b]quinoline-8-carboxamide] | 0.11 nM | 1.6 nM | – | – |
| C=C[C@@H]1C[C@]1(NC(=O)[C@@H]1C[C@@H]2CN1C(=O)[C@H](C(C)(C)C)NC(=O)O[C@@H]1C[C@H]1CCCCCc1c(nc3ccccc3c1OCC1CCN(CC)CC1)O2)C(=O)NS(=O)(=O)C1(C)CC1 [Example 227, (1aR,5S,8S,10R,22aR)-5-tert-butyl-N-[(1R,2S)-2-ethenyl-1-{[(1-methylcyclopropyl)sulfonyl]carbamoyl}cyclopropyl]-17-[(1-ethylpiperidin-4-yl)methoxy]-3,6-dioxo-1,1a,3,4,5,6,9,10,18,19,20,21,22,22a-tetradecahydro-8H-7,10-methanocyclopropa[18,19][1,10,3,6] dioxadiazacyclononadecino[11,12-b]quinoline-8-carboxamide] | 0.095 nM | 0.36 nM | – | – |
| C=C[C@@H]1C[C@]1(NC(=O)[C@@H]1C[C@@H]2CN1C(=O)[C@H](C(C)(C)C)NC(=O)O[C@@H]1C[C@H]1CCCCCc1c(nc3ccccc3c1OCC1CCN(CCOC)CC1)O2)C(=O)NS(=O)(=O)C1(C)CC1 [Example 228, (1aR,5S,8S,10R,22aR)-5-tert-butyl-N-[(1R,2S)-2-ethenyl-1-{[(1-methylcyclopropyl)sulfonyl]carbamoyl}cyclopropyl]-17-{[1-(2-methoxyethyl)piperidin-4-yl]methoxy}-3,6-dioxo-1,1a,3,4,5,6,9,10,18,19,20,21,22,22a-tetradecahydro-8H-7,10-methanocyclopropa[18,19][1,10,3,6] dioxadiazacyclononadecino[11,12-b]quinoline-8-carboxamide] | 0.11 nM | 0.47 nM | – | – |
| C=C[C@@H]1C[C@]1(NC(=O)[C@@H]1C[C@@H]2CN1C(=O)[C@H](C(C)(C)C)NC(=O)O[C@@H]1C[C@H]1CCCCCc1c(nc3ccccc3c1OC1CCN(CC)CC1)O2)C(=O)NS(=O)(=O)C1(C)CC1 [Example 229, (1aR,5S,8S,10R,22aR)-5-tert-butyl-N-[(1R,2S)-2-ethenyl-1-{[(1-methylcyclopropyl)sulfonyl]carbamoyl}cyclopropyl]-17-[(1-ethylpiperidin-4-yl)oxy]-3,6-dioxo-1,1a,3,4,5,6,9,10,18,19,20,21,22,22a-tetradecahydro-8H-7,10-methanocyclopropa[18,19][1,10,3,6] dioxadiazacyclononadecino[11,12-b]quinoline-8-carboxamide] | 0.034 nM | 0.25 nM | – | – |
| C=C[C@@H]1C[C@]1(NC(=O)[C@@H]1C[C@@H]2CN1C(=O)[C@H](C(C)(C)C)NC(=O)O[C@@H]1C[C@H]1CCCCCc1c(nc3ccccc3c1OC1CCN(CC3CC3)CC1)O2)C(=O)NS(=O)(=O)C1(C)CC1 [Example 230, (1aR,5S,8S,10R,22aR)-5-tent-butyl-17-{[1-(cyclopropylmethyl)piperidin-4-yl]oxy}-N-[(1R,2S)-2-ethenyl-1-{[(1-methylcyclopropyl)sulfonyl]carbamoyl}cyclopropyl]-3,6-dioxo-1,1a,3,4,5,6,9,10,18,19,20,21,22,22a-tetradecahydro-8H-7,10-methanocyclopropa[18,19][1,10,3,6] dioxadiazacyclononadecino[11,12-b]quinoline-8-carboxamide] | 0.065 nM | 0.38 nM | – | – |
| C=C[C@@H]1C[C@]1(NC(=O)[C@@H]1C[C@@H]2CN1C(=O)[C@H](C(C)(C)C)NC(=O)O[C@@H]1C[C@H]1CCCCCc1c(nc3ccccc3c1O[C@@H]1C[C@H]3C[C@@H]1CN3CCOC)O2)C(=O)NS(=O)(=O)C1(C)CC1 [Example 231, (1aR,5S,8S,10R,22aR)-5-tert-butyl-N-[(1R,2S)-2-ethenyl-1-{[(1-methylcyclopropyl)sulfonyl]carbamoyl}cyclopropyl]-17-{[(1R,4R,5R)-2-(2-methoxyethyl)-2-azabicyclo[2.2.1]hept-5-yl]oxy}-3,6-dioxo-1,1a,3,4,5,6,9,10,18,19,20,21,22,22a-tetradecahydro-8H-7,10-methanocyclopropa[18,19][1,10,3,6] dioxadiazacyclononadecino[11,12-b]quinoline-8-carboxamide] | 0.13 nM | 1.8 nM | – | – |
| C=C[C@@H]1C[C@]1(NC(=O)[C@@H]1C[C@@H]2CN1C(=O)[C@H](C1(C)CCCCC1)NC(=O)O[C@@H]1C[C@H]1CCCCCc1c(nc3ccccc3c1OC1CCN(C)CC1)O2)C(=O)NS(=O)(=O)C1(C)CC1 [Example 232, (1aR,5S,8S,10R,22aR)—N-[(1R,2S)-2-ethenyl-1-{[(1-methylcyclopropyl)sulfonyl]carbamoyl}cyclopropyl]-5-(1-methylcyclohexyl)-17-[(1-methylpiperidin-4-yl)oxy]-3,6-dioxo-1,1a,3,4,5,6,9,10,18,19,20,21,22,22a-tetradecahydro-8H-7,10-methanocyclopropa[18,19][1,10,3,6]dioxadiazacyclononadecino[11,12-b]quinoline-8-carboxamide] | – | 0.275 nM | 0.02 nM | 0.04 nM |
